Measurements: patent US20150202329A1, “Methods and Composition for Detecting Intestinal Cell-Barrier Dysfunction” (priority 2012, published 2015)
Entries after “also recorded” stand apart in the source; their conditions may differ.

What was measured:
polarized T84 monolayers = assay: Caspase-1 activation and cell extrusion in nigericin-treated polarized T84 monolayers (FLICA 1 staining, Western blot); assay type: cell-based, human
Excerpt: To investigate the morphology of caspase-1-induced IEC extrusion, we applied nigericin, a well-established Nlrp3-dependent inflammasome activator to polarized T84 monolayers. […] Active caspase-1 expression in nigericin-treated T84 cells was confirmed by Western blot analysis (FIG. 1b).
(§1) T84 human colon cancer epithelial cells were maintained in tissue culture plates (10 cm) in Dulbecco's minimal essential medium (DMEM)/F-12, 10% (v/v) heat-inactivated fetal bovine serum (FBS), 1%(w/v) penicillin-streptomycin. The cells were plated onto Transwells (2×10^5 cells/well, 6.5 mm diameter; 0.4 μm-pore size; Corning Life Sciences, Tewksbury, Mass.) and grown until development of apical junctional complexes (as indicated by a transepithelial resistance of >2,000 Ω·cm^2) for studies. For caspase-1 inhibition experiment, prior to nigericin treatment, the tissue culture medium was removed and fresh medium with 50 µM caspase-1 inhibitor (Ac-YVAD-CMK) was introduced. Nigericin (10, 25, 50 µM) was added to both the apical and basolateral aspect of the Transwell. Transepithelial resistance (TER) was measured at before and 3 h after Nigericin treatment, using a Millicell-ERS Voltmeter and chopstick electrodes (Millipore, Bedford, Mass.). […]

T84 monolayers [1] = assay: Trans-epithelial electrical resistance (TER) of T84 monolayers; assay type: cell-based, human
Excerpt: (§2) To determine whether this form of cell extrusion results in loss of barrier function, we measured the trans-epithelial electrical resistance (TER). […] Given that the breach in the T84 monolayers appeared to be 1-2 μm in diameter on TEM images, we evaluated the epithelial integrity to microparticles (1 μm Fluoresbrite® Microspheres) and microbes (E. coli […]) using the lowest dose of nigericin treatment. […] Fluoresbrite microspheres and E. coli TMW2.497 were recovered in the media from basolateral well.
T84 human colon cancer epithelial cells were maintained in tissue culture plates (10 cm) in Dulbecco's minimal essential medium (DMEM)/F-12, 10% (v/v) heat-inactivated fetal bovine serum (FBS), 1%(w/v) penicillin-streptomycin. The cells were plated onto Transwells (2×10^5 cells/well, 6.5 mm diameter; 0.4 μm-pore size; Corning Life Sciences, Tewksbury, Mass.) and grown until development of apical junctional complexes (as indicated by a transepithelial resistance of >2,000 Ω·cm^2) for studies. For caspase-1 inhibition experiment, prior to nigericin treatment, the tissue culture medium was removed and fresh medium with 50 µM caspase-1 inhibitor (Ac-YVAD-CMK) was introduced. Nigericin (10, 25, 50 µM) was added to both the apical and basolateral aspect of the Transwell. […] For microspheres and […] experiments, after overnight incubation with nigericin, 10^7/ml of 1 μm Microspheres or 10^9/ml E. coli TMW2.497 were added to the apical aspect of Transwell. One hour after incubation with the microspheres or E. coli, the cells were fixed in cold methanol for 5 minutes. Cells were then permeabilized in 0.2%(v/v) Triton X-100 for 15 min and blocked for one hour in PBS with 0.2% (v/v) goat serum and 1%(w/v) BSA.

T84 monolayers [2] = assay: Movement of microspheres and E. coli across the T84 monolayer in Transwell; assay type: cell-based, human; settings: nigericin 10 μM overnight (lowest dose)
Excerpt: as §2
as §1, with “Nigericin (10, 25, 50 µM) was added to both the apical and basolateral aspect of the Transwell.” left out

[3] = in vivo; cited from earlier work
IL-10 KO mice [4] = assay: IEC extrusion measured as epithelial gap density by confocal endomicroscopy in IL-10 KO mice; assay type: in vivo, mouse; settings: 10 mg/kg intraperitoneal, 4, 7 and 10 days
Protocol: (§3) To evaluate the effect of caspase-1 inhibition on IEC extrusion over time in vivo, we treated the IL-10 KO mice with a selective caspase-1 inhibitor Ac-YVAD-CMK (10 mg/kg) over 4, 7 and 10 day (5 times the mean lifespan of rodent)enterocytes^40) via intraperitoneal injections. The control IL-10 KO group received 10 days of equal volume of 2% (v/v) DMSO.
Confocal laser endomicroscopy of the mouse ileum and confocal microscopy of whole mount mouse intestinal tissues for determination of epithelial gap density were performed using previously described methods. Cell culture, human and mouse intestinal slides were imaged using a spinning disc confocal microscope (Quorum Technologies Inc, Guelph, ON) using previously described methods.

IL-10 KO mice [5] = assay: Permeation of orogavaged 0.5 μm microspheres into blood of IL-10 KO mice; assay type: in vivo, mouse; settings: 10 mg/kg, day 7
Protocol: as §3
For microsphere studies, mice were gavaged with a mixture containing 10^7 Fluoresbrite® YG Microspheres with diameter of 0.5, 1.0, 2.0, 3.0, and 6.0 μm in 200 μl solution as previously described after an overnight fast. Blood samples were collected 4 hours post-administration of the beads. Whole blood mixture was then centrifuged at 1,250×g in pre-heparinized tubes for 10 min at RT, the plasma portion of the samples were removed and centrifuged at 1,250×g for 5 min before flow cytometry analysis. The remaining buffy coat and hematocrit of the samples were lysed with 5 mL of lysing buffer (4.15 g NH4Cl, 0.84 g NaHCO3, 1 ml […] EDTA at pH 8, and 500 mL of ddH2O) at RT, mixed and centrifuged at 1,250×g for 5 min at 4° C.×3. The supernatant was discarded. The WBC pellet was re-suspended in 400 μl of 0.03% PBS with Fetal Bovine Albumin. The plasma and WBC pellet samples were analyzed with flow cytometry for determination of microsphere counts.

Molecule | active caspase-1 (p10) expression by Western blot (polarized T84 monolayers; nigericin 50 μM, T84 cells) | activated caspase-1 and cell extrusion by FLICA 1 staining (polarized T84 monolayers; nigericin, 3-hours post-treatment) | TER of T84 monolayers (barrier function) (T84 monolayers [1]; nigericin 10, 25, 50 μM, 3 h) | TER as measured by ECIS over time (T84 monolayers [1]; nigericin, overnight) | movement of 1 μm microspheres and E. coli TMW2.497 across the monolayer (T84 monolayers [2]) | systemic toxicity [3] | reversal of nigericin-induced TER reduction measured by ECIS (T84 monolayers [1]; nigericin 25 μM, overnight) | reversal of nigericin-induced TER reduction / barrier dysfunction (T84 monolayers [1]; pre-treatment with caspase-1 inhibitor, nigericin 25 μM, 3 hours and overnight) | IEC extrusion as epithelial gap density (IL-10 KO mice [4]) | permeation of orogavaged 0.5 μm latex microspheres into blood (IL-10 KO mice [5])
CO[C@@H]1C[C@@H](C[C@H]2CC[C@H](C)[C@H]([C@@H](C)C(=O)O)O2)O[C@]2(O[C@](C)([C@H]3CC[C@@](C)([C@@H]4O[C@@H]([C@H]5O[C@@](O)(CO)[C@H](C)C[C@@H]5C)C[C@@H]4C)O3)C[C@H]2C)[C@@H]1C [nigericin, Nigericin] | increased active caspase-1 (p10) expression | increased activated caspase-1 and cell extrusion | dose-dependent reduction in TER; also recorded: dose-dependent barrier dysfunction developed | time-dependent reduction in TER | Movements of microspheres and E. coli from the upper chamber through the monolayer to the lower chamber of the Transwell were observed | significant systemic toxicity | – | – | – | –
Ac-YVAD-CMK | – | – | – | – | – | – | reversed | reversed; also recorded: abrogated | Time-dependent reduction in IEC extrusion | normalization of permeation
